# Assay results taken from PMC5876388 (Scientific Reports, 2018).
# Tests used:
# [1] = Cytotoxicity test, AlamarBlue; details: human, HPB-ALL cells
# Method: (§1) HPB-ALL cells (1 × 10^4 cells per well) were incubated in 96-well black plates at 37 °C for 72 h. Media also contained different concentrations of compound. After incubation, AlamarBlue was added 10 μL per well. After incubation for 4 h, using a fluorescence plate reader, fluorescence was measured and cell viability was determined. Data are presented as the mean with SD from three independent experiments. […] The effect on protein expression was analyzed by Western blotting. β-Actin was used as internal control. (D,E) Relative protein levels of NICD and HES1 analyzed by densitometry. Data are presented as the mean with SD from three independent experiments. *P < 0.05 is considered statistically significant. P values were analyzed by Student’s t test.
# HPB-ALL cells (1 × 10^4 cells per well) were incubated in 96-well black plates in 100 μL of RPMI-1640 medium with 10% FBS, Streptomycin (100 μg/mL) and Penicillin (100 unit/mL). Media also contained different concentrations of compound. Cells were incubated at 37 °C for 72 h. After incubation, AlamarBlue (00–025, DAL1025; Thermo Fisher Scientific Inc., Waltham, USA) was added 10 μL per well. After incubation for 4 h, using a fluorescence plate reader (Thermo Fisher Scientific Inc., Waltham, USA), fluorescence was measured and cell viability was determined.
# [2] = system: HEK293 cells; experiment: Cytotoxicity test, FMCA; assay type: cell-based, human; details: 72 h
# Method: (§2) The medium was exchanged to fresh medium with different concentrations of compound and cells were incubated for 72 h.
# [3] = Cytotoxicity test, FMCA; assay type: cell-based, human; details: human, HEK293 cells, FMCA, read-out: IC50 cytotoxicity 293
# Method: as §2
# [4] = system: HES1; experiment: Western blot in HPB-ALL cells; assay type: cell-based, human; details: 10 μM, 72 h
# Method: as §1
# (§3) HPB-ALL cells were incubated in a 6 cm dish in 5 mL of RPMI-1640 medium with 10% FBS, Streptomycin (100 μg/mL) and Penicillin (100 unit/mL) at 5 × 10^5 cells per dish (1 × 10^6 cells per dish, when treatment with MG132). Media also contained different concentrations of compound. Cells were incubated at 37 °C for 72 h (12 h, when treatment with MG132). After incubation, cells were centrifuged and collected, and then washed with 500 μL of PBS twice. To prepare cell lysate and confirm protein expression levels, the same method as described above was used.
# [5] = system: NICD; experiment: Western blot in HPB-ALL cells; assay type: cell-based, human; details: 10 μM, 72 h
# Method: as §1, §3
# [6] = system: HES1; experiment: Western blot in assay cells; assay type: cell-based; details: LS174T Notch cells, 12 h
# Method: (§4) After another 12 h incubation with 50 ng/mL Dox, and cells were washed with PBS. Medium was changed to fresh medium with 2 and incubated for 12 h. […] (C–F) Relative protein levels analyzed by densitometry. […] P values were analyzed by Student’s t test.
# (§5) Before another 12 h incubation, 50 ng/mL of doxycycline was added into each dish. Then, medium was changed to fresh medium with each compound. After 12 h incubation, cells were washed with PBS (500 μL) twice and then cells were collected by scraping. Using lysis buffer (20 mM Tris-HCl pH 7.4, 150 mM NaCl, 0.5% sodium deoxycholate, 10 mM EDTA, 1 mM sodium orthovanadate, and 0.1 mM NaF) containing a 1% […] inhibiotor cocktail (Nacalai Tesque, Tokyo, Japan), protein lysate was prepared. Protein lysates were separated by a 7.5%, 10%, 12.5% and 15% SDS-PAGE electrophoresis. Proteins were then transferred to a PVDF membrane (Bio-Rad Laboratories, Inc. Hercules, USA) electrophoretically. The membrane was incubated for 1 h with TBST (10 mM Tris-HCl pH 7.4, 100 mM NaCl and 0.1% Tween 20) containing 5% skimmed milk. […]
# [7] = system: HES5; experiment: Western blot in assay cells; assay type: cell-based; details: LS174T Notch cells, 12 h
# Method: as §4, §5
# [8] = system: NICD; experiment: Western blot in assay cells; assay type: cell-based, mouse; details: LS174T Notch cells, 12 h
# Method: as §4, §5
# [9] = system: Notch1(1704–2531); experiment: Western blot in assay cells; assay type: cell-based, mouse; details: LS174T Notch cells, 12 h
# Method: as §4, §5
smiles,measurement,setting,value
"COc1c(O)cc2oc3cc(O)c(CC=C(C)C)c(O)c3c(=O)c2c1C/C=C(\C)CCC=C(C)C [Compound 2, cowanin]",IC50 at 72 h,[1],7.5 µM
same,"viability at 12 h, 15 µM",[1],98%
same,viability of normal human embryonic kidney 293 cells,[2]; 10 μM,not affected
same,cytotoxicity on 293 cells,[2]; 20 μM,cytotoxicity was detected
same,IC50 at 72 h,[3],15.1 µM
same,expression of HES1,[4],reduced
same,expression of NICD,[5],reduced
same,expression of HES1,[6],reduced
same,expression of HES5,[7],reduced
same,NICD level,[8],reduced dose dependently
same,expression of Notch1(1704–2531),[9],increased
